In patent US8962596B2 (Array BioPharma Inc., priority 2010, dated 2015) one finds IC50 data, which are given here for eight molecules.

Format in all cases: biochemical
Assay [1] has as its target T1, JAK2 (Homo sapiens, UniProt O60674).
T1 construct: purchased Invitrogen Corporation, Carlsbad, Calif; PV4288
Kind of assay: JAK2 Inhibition Assay (Omnia kinase fluorescence peptide substrate assay). As to conditions: averaged IC50 ranges; assay of Example C; 25 μM (Km app) or 1 mM ATP, 5 nM JAK2. The procedure, abridged: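 A 10-point, 3-fold compound series (top 10 μM, 2% DMSO) was tested against 5 nM JAK2 with 10 μM Omnia Y7 substrate and either 1 mM or 25 μM (Km app) ATP. Buffer: pH 7.4 HEPES, MgCl2, Triton X-100, DTT. Sox fluorescence was monitored kinetically for 45 min; IC50 is the concentration giving 50 POC on a 4-parameter fit.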

Assay [2] addresses T2, JAK3 (Homo sapiens, UniProt P52333).
T2 construct: purchased Invitrogen Corporation, Carlsbad, Calif; PV4080
T2 sequence (P52333 1-1124): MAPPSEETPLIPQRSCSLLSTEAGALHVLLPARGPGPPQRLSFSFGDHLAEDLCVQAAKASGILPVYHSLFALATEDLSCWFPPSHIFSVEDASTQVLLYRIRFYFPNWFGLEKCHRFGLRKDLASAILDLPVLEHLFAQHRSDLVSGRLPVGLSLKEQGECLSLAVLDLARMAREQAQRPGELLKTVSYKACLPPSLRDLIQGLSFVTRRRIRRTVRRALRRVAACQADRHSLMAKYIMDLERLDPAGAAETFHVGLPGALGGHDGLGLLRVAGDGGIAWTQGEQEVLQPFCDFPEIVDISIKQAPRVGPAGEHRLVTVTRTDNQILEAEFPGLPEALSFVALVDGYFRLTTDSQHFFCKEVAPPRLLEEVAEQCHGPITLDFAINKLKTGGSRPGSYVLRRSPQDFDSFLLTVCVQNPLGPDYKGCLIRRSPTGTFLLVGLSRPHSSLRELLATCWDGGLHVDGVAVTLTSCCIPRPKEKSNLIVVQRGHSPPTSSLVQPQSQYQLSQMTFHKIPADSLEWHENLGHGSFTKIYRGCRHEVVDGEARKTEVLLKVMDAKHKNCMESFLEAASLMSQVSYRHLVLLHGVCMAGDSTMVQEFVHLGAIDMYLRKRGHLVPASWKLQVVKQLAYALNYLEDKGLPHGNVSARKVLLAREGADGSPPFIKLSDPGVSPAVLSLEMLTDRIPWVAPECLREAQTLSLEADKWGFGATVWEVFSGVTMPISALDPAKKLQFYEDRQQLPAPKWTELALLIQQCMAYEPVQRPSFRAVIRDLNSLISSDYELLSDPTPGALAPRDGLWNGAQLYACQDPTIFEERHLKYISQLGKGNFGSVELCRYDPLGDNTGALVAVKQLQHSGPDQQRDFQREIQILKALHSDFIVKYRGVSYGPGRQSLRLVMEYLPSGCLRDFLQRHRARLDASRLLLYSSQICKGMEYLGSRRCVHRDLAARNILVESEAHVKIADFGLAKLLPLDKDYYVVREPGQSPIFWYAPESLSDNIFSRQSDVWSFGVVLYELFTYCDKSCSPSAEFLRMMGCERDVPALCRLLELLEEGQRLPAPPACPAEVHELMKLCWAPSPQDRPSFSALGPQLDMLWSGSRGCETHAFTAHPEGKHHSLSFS
As to the kind of experiment: JAK3 Inhibition Assay (Omnia kinase fluorescence peptide substrate assay). As to conditions: averaged IC50 ranges; assay of Example D; 10 μM (Km app) or 1 mM ATP, 2.5 nM JAK3. The procedure, abridged: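 Kinase at 2.5 nM with 10 µM Omnia Y7 peptide and 10 µM (Km app) or 1 mM ATP in 25 mM HEPES pH 7.4, 10 mM MgCl2, 1 mM DTT, 0.01% Triton X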

For assay [3], the target named is T3, Human Tyk2 kinase domain (Homo sapiens, UniProt P29597).
T3 construct: comprising amino acids 886 to 1187 with 10 additional histidine residues; 10xHis (histidine tag) (C, cleaved yes); made in house
T3 sequence (P29597 886-1187): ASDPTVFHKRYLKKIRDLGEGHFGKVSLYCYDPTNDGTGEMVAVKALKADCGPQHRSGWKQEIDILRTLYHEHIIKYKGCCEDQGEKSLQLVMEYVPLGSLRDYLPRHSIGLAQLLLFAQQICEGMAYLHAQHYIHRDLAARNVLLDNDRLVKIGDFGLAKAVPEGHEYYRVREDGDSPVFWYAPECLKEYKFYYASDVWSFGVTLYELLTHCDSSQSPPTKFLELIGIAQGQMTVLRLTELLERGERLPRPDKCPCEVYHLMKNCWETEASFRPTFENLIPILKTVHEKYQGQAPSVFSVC
Kind of assay: Tyk2 Inhibition Assay (Omnia kinase fluorescence peptide substrate assay). As to conditions: averaged IC50 ranges; assay of Example A; 10 μM (Km app) or 1 mM ATP, 2 nM Tyk2. The procedure, abridged:
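2 nM His-tag-cleaved kinase domain (aa 886–1187) with 8 μM Omnia Y12 peptide, 10 μM (Km app) or 1 mM ATP, pH 7.4 HEPES/10 mM MgCl2, 2% DMSO. Fluorescence (ex 360/em 485 nm) every 50 s for 45 min; IC50 from 4-parameter fit of POC, top dose 10 μM.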

The target of assay [4] is T4, JAK1 (Homo sapiens, UniProt P23458).
T4 construct: purchased Invitrogen Corporation, Carlsbad, Calif; PV4775
Kind of assay: JAK1 Inhibition Assay (Omnia kinase fluorescence peptide substrate assay). As to conditions: averaged IC50 ranges; assay of Example B; 40 μM (Km app) or 1 mM ATP, 15 nM JAK1.

SMILES strings stand for the structures.

T1 sequence (O60674 whole entry): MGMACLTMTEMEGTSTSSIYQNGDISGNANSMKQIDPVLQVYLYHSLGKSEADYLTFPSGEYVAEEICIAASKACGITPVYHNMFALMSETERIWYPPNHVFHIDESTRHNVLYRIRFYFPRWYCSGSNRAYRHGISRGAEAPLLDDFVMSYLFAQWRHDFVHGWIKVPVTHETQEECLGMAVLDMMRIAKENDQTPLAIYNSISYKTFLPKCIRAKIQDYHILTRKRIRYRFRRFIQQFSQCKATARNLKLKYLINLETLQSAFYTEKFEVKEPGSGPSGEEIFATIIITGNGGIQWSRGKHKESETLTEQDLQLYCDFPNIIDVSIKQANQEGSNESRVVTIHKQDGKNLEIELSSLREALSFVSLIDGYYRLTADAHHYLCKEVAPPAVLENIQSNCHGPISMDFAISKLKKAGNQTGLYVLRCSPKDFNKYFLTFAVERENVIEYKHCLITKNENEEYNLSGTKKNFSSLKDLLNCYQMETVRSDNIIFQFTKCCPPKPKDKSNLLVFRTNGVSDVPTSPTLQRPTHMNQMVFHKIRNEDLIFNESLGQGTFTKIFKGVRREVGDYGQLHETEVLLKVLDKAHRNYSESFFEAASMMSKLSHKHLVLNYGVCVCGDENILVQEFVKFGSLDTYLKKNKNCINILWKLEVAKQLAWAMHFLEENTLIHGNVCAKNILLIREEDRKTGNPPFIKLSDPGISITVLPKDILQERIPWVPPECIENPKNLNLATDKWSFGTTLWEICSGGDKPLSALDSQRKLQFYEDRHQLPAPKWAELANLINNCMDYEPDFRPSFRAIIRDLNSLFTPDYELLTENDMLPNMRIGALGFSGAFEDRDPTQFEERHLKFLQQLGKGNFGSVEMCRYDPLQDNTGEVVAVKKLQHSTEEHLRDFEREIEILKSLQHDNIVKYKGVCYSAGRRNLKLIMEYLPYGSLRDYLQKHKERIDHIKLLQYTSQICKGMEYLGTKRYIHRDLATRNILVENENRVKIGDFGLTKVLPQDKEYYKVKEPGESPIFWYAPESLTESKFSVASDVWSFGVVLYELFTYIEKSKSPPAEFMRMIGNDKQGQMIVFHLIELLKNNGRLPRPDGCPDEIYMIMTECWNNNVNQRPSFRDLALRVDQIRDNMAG
T4 sequence (P23458 whole entry): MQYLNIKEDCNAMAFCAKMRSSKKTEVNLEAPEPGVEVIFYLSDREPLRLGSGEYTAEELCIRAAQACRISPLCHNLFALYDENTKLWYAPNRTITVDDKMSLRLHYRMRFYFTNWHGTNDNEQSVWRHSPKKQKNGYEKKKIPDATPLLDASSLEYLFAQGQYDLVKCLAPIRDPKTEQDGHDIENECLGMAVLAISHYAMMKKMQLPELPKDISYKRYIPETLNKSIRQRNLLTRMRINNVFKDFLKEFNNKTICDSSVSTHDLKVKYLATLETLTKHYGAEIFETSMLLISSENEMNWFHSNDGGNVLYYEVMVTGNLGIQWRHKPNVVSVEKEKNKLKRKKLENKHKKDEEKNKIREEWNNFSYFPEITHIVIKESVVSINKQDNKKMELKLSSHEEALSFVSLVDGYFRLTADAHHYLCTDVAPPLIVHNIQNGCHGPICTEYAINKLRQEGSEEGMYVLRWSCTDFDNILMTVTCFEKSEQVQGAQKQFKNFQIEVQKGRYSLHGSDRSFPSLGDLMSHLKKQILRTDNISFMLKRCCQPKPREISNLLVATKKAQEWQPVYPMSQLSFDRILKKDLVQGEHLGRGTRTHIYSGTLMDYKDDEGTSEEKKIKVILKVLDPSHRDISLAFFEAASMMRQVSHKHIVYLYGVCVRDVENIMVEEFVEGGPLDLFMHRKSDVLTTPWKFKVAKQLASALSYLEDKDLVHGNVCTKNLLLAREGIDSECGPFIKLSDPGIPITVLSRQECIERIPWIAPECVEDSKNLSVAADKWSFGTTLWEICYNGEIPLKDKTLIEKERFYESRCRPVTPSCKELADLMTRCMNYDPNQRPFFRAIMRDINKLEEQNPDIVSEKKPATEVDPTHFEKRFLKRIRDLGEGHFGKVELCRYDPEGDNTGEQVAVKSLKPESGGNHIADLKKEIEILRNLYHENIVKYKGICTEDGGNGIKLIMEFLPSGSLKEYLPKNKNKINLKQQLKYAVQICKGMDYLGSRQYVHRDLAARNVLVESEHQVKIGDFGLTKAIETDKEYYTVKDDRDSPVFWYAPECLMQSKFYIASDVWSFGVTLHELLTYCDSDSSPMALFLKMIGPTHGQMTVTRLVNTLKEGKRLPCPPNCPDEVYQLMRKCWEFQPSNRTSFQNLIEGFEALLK

The IC50 is the midpoint of a concentration-inhibition curve. Take `Cn1cc(-c2cc3nccn3c(-c3cnn(C4(CC#N)CC5(COC5)C4)c3)n2)cn1` [Example 148, 2-(6-(4-(7-(1-methyl-1H-pyrazol-4-yl)imidazo[1,2-c]pyrimidin-5-yl)-1H-pyrazol-1-yl)-2-oxaspiro[3.3]heptan-6-yl)acetonitrile]: the IC50 in assay [1] is 10 to 100 nM; in assay [2] it was greater than 1000 nM; in assay [3], less than 10 nM; in assay [4], 100 to 1000 nM.
As to `N#CCC1(n2cc(-c3nc(C4CC4)cc4nccn34)cn2)CN(CC(F)(F)F)C1` [Example 149, 2-(3-(4-(7-cyclopropylimidazo[1,2-c]pyrimidin-5-yl)-1H-pyrazol-1-yl)-1-(2,2,2-trifluoroethyl)azetidin-3-yl)acetonitrile], the IC50 in assay [1] is greater than 1000 nM; in assay [2], greater than 1000 nM; in assay [3] it was 100 to 1000 nM; in assay [4] it was greater than 1000 nM.
As for `Cn1cc(-c2cc3nccn3c(-c3cnn(C4(CC#N)CC5(CCOCC5)C4)c3)n2)cn1` [Example 150, 2-(2-(4-(7-(1-methyl-1H-pyrazol-4-yl)imidazo[1,2-c]pyrimidin-5-yl)-1H-pyrazol-1-yl)-7-oxaspiro[3.5]nonan-2-yl)acetonitrile], the IC50 in assay [1] is 10 to 100 nM; in assay [2], greater than 1000 nM; in assay [3], less than 10 nM; in assay [4], 100 to 1000 nM.
Taken in the same sequence, the figures for `Cn1cc(-c2cc3nccn3c(-c3cnn(C4(CC#N)CC5(CCCCC5)C4)c3)n2)cn1` [Example 151, 2-(2-(4-(7-(1-methyl-1H-pyrazol-4-yl)imidazo[1,2-c]pyrimidin-5-yl)-1H-pyrazol-1-yl)spiro[3.5]nonan-2-yl)acetonitrile] were 10 to 100 nM, 100 to 1000 nM, less than 10 nM and 100 to 1000 nM.
On to `Cn1cc(-c2cc3ncc(F)n3c(-c3cnn(C(CC#N)C4CC4)c3)n2)cn1` (centres unmarked) [Example 152, 3-cyclopropyl-3-(4-(3-fluoro-7-(1-methyl-1H-pyrazol-4-yl)imidazo[1,2-c]pyrimidin-5-yl)-1H-pyrazol-1-yl)propanenitrile], for which the half-inhibitory concentration (IC50) in assay [1] was 10 to 100 nM; in assay [2] it was 100 to 1000 nM; in assay [3], less than 10 nM; in assay [4] it was 100 to 1000 nM.
`N#CCC1(n2cc(-c3nc(-c4cnn(C5COC5)c4)cc4ncc(Cl)n34)cn2)CN(CC(F)(F)F)C1` [Example 153, 2-(3-(4-(3-chloro-7-(1-(oxetan-3-yl)-1H-pyrazol-4-yl)imidazo[1,2-c]pyrimidin-5-yl)-1H-pyrazol-1-yl)-1-(2,2,2-trifluoroethyl)azetidin-3-yl)acetonitrile]: the IC50 in assay [1] was 10 to 100 nM; in assay [2], 100 to 1000 nM; in assay [3], less than 10 nM; in assay [4] it was 100 to 1000 nM.
With `Cn1cc(-c2cc3ncc(F)n3c(-c3cnn(C4(CC#N)CN(S(=O)(=O)C(F)(F)F)C4)c3)n2)cn1` [Example 154, 2-(3-(4-(3-fluoro-7-(1-methyl-1H-pyrazol-4-yl)imidazo[1,2-c]pyrimidin-5-yl)-1H-pyrazol-1-Y1)-1-((trifluoromethyl)sulfonyl)azetidin-3-yl)acetonitrile], the IC50 in assay [1] is less than 10 nM; in assay [2], 100 to 1000 nM; in assay [3], less than 10 nM; in assay [4], 10 to 100 nM.
`Cn1cc(-c2cc3ncc(Cl)n3c(-c3cnn(C4(CC#N)CN(S(=O)(=O)C(F)(F)F)C4)c3)n2)cn1` [Example 155, 2-(3-(4-(3-chloro-7-(1-methyl-1H-pyrazol-4-yl)imidazo[1,2-c]pyrimidin-5-yl)-1H-pyrazol-1-yl)-1-((trifluoromethyl)sulfonyl)azetidin-3-yl)acetonitrile]: the IC50 was 10 to 100 nM in assay [1], 100 to 1000 nM in assay [2], less than 10 nM in assay [3] and 10 to 100 nM in assay [4].
